Measured values as given in PubChem BioAssay AID330 (DTP/NCI, 2004).
Where “and” joins values, the source holds several entries; their conditions need not be identical. Equal entries are not always repeated. Toxic doses and inconclusive results are not listed.

Test system: P388 leukemia ip, CD2F1 mice, survival T/C
Experiment: NCI In Vivo Anticancer Drug Screen. Data for tumor model P388 Leukemia (intraperitoneal) in CD2F1 (CDF1) mice
Conditions: endpoint: median survival time, higher = longer survival
Summary of the method: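 Mice carrying the transplanted tumor received test compound or vehicle. Survival was recorded in each group, and the value is the treated-group measurement divided by that of the vehicle-treated control group.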

[1] = dose: 50.0 mg/kg/injection, schedule: Q01DX005 (ip), vehicle: saline with Tween-80
[2] = dose: 100.0 mg/kg/injection, schedule: Q01DX005 (ip), vehicle: saline with Tween-80
[3] = dose: 200.0 mg/kg/injection, schedule: Q01DX005 (ip), vehicle: saline with Tween-80
[4] = dose: 50.0 mg/kg/injection, schedule: Q01DX005 (ip), vehicle: Klucel (hydroxypropylcellulose) (HPC)
[5] = dose: 100.0 mg/kg/injection, schedule: Q01DX005 (ip), vehicle: Klucel (hydroxypropylcellulose) (HPC)
[6] = dose: 200.0 mg/kg/injection, schedule: Q01DX005 (ip), vehicle: Klucel (hydroxypropylcellulose) (HPC)
[7] = dose: 50.0 mg/kg/injection, schedule: Q01DX001 (ip), vehicle: Klucel (hydroxypropylcellulose) (HPC)
[8] = dose: 100.0 mg/kg/injection, schedule: Q01DX001 (ip), vehicle: Klucel (hydroxypropylcellulose) (HPC)
[9] = dose: 12.5 mg/kg/injection, schedule: Q01DX009 (ip), vehicle: Klucel (hydroxypropylcellulose) (HPC)
[10] = dose: 25.0 mg/kg/injection, schedule: Q01DX009 (ip), vehicle: Klucel (hydroxypropylcellulose) (HPC)
[11] = dose: 50.0 mg/kg/injection, schedule: Q01DX009 (ip), vehicle: Klucel (hydroxypropylcellulose) (HPC)
[12] = dose: 100.0 mg/kg/injection, schedule: Q04DX002 (ip), vehicle: saline with Tween-80
[13] = dose: 200.0 mg/kg/injection, schedule: Q04DX002 (ip), vehicle: saline with Tween-80
[14] = dose: 12.5 mg/kg/injection, schedule: Q01DX009 (ip), vehicle: saline with Tween-80
[15] = dose: 25.0 mg/kg/injection, schedule: Q01DX009 (ip), vehicle: saline with Tween-80
[16] = dose: 50.0 mg/kg/injection, schedule: Q01DX009 (ip), vehicle: saline with Tween-80
[17] = dose: 100.0 mg/kg/injection, schedule: Q01DX009 (ip), vehicle: Klucel (hydroxypropylcellulose) (HPC)
[18] = dose: 100.0 mg/kg/injection, schedule: Q01DX009 (ip), vehicle: saline with Tween-80
[19] = dose: 100.0 mg/kg/injection, schedule: Q04DX003 (ip), vehicle: saline with Tween-80
[20] = dose: 12.5 mg/kg/injection, schedule: Q01DX005 (ip), vehicle: Klucel (hydroxypropylcellulose) (HPC)
[21] = dose: 200.0 mg/kg/injection, schedule: Q01DX009 (ip), vehicle: saline with Tween-80

O=C(NC(=S)Nc1cccc2c(O)cccc12)c1cccc(Br)c1
T/C (dose: 15.0 mg/kg/injection, schedule: Q01DX005 (ip), vehicle: saline with Tween-80): 91 % of control | T/C (dose: 30.0 mg/kg/injection, schedule: Q01DX005 (ip), vehicle: saline with Tween-80): 89 % of control | T/C (dose: 60.0 mg/kg/injection, schedule: Q01DX005 (ip), vehicle: saline with Tween-80): 91 % of control | T/C (dose: 240.0 mg/kg/injection, schedule: Q01DX005 (ip), vehicle: saline with Tween-80): 90 % of control and 94 % of control

CC1=CC(=O)OC12CCCC(C)(C)C2 (configuration not stated)
T/C [1]: 106 % of control | T/C [2]: 104 % of control | T/C [3]: 106 % of control

CC1CN(C(=O)/C=C/C(=O)OC2CCCCC2)C(C)CN1C(=O)/C=C/C(=O)OC1CCCCC1 (configuration not stated)
T/C [4]: 98 % of control | T/C [5]: 94 % of control | T/C [6]: 97 % of control

Cc1cc(=O)n2c3c(c4c(cc13)c(CBr)cc(=O)n4C)OC2
T/C (dose: 12.5 mg/kg/injection, schedule: Q01DX001 (ip), vehicle: Klucel (hydroxypropylcellulose) (HPC)): 96 % of control | T/C (dose: 25.0 mg/kg/injection, schedule: Q01DX001 (ip), vehicle: Klucel (hydroxypropylcellulose) (HPC)): 96 % of control | T/C [7]: 112 % of control | T/C [8]: 101 % of control

Brc1cc(Br)c2ccccc2c1OCC1CO1 (configuration not stated)
T/C [9]: 106 % of control and 95 % of control | T/C [10]: 106 % of control | T/C [11]: 88 % of control and 89 % of control and 95 % of control | T/C (dose: 200.0 mg/kg/injection, schedule: Q01DX009 (ip), vehicle: Klucel (hydroxypropylcellulose) (HPC)): 91 % of control

CCOC(=O)N1c2ccccc2C(c2ccccc2)=NC1(C)C#N (configuration not stated)
T/C [1]: 97 % of control | T/C [2]: 99 % of control | T/C [3]: 99 % of control

COc1ccc2c(c1)CCc1cn[nH]c1-2
T/C [4]: 93 % of control | T/C [5]: 92 % of control | T/C [6]: 93 % of control

COC(CCC1N=C1c1ccccc1)OC (configuration not stated)
T/C [12]: 105 % of control | T/C [13]: 102 % of control | T/C (dose: 400.0 mg/kg/injection, schedule: Q04DX002 (ip), vehicle: saline with Tween-80): 102 % of control

N=C(N)SCc1nc(-c2ccc(Cl)cc2)no1
T/C (dose: 6.25 mg/kg/injection, schedule: Q01DX009 (ip), vehicle: saline with Tween-80): 109 % of control | T/C (dose: 6.25 mg/kg/injection, schedule: Q01DX009 (ip), vehicle: saline): 98 % of control | T/C [14]: 106 % of control | T/C (dose: 12.5 mg/kg/injection, schedule: Q01DX009 (ip), vehicle: saline): 104 % of control and 106 % of control | T/C [15]: 106 % of control | T/C (dose: 25.0 mg/kg/injection, schedule: Q01DX009 (ip), vehicle: saline): 108 % of control and 111 % of control | T/C [16]: 113 % of control | T/C (dose: 50.0 mg/kg/injection, schedule: Q01DX009 (ip), vehicle: saline): 110 % of control and 121 % of control and 123 % of control

COc1cccc(CC#N)c1O
T/C [10]: 105 % of control | T/C [11]: 100 % of control | T/C [17]: 106 % of control

CCOC(=O)N1C(=O)c2ccccc2C1=O
T/C [15]: 110 % of control | T/C (dose: 25.0 mg/kg/injection, schedule: Q04DX003 (ip), vehicle: saline with Tween-80): 115 % of control | T/C [16]: 105 % of control | T/C (dose: 50.0 mg/kg/injection, schedule: Q04DX003 (ip), vehicle: saline with Tween-80): 110 % of control | T/C [18]: 100 % of control | T/C [19]: 120 % of control

O=c1c2ccccc2ncn1S(=O)(=O)c1ccc(N(CCCl)CCCl)cc1
T/C [12]: 110 % of control | T/C [13]: 118 % of control

CCCCCCCCC1SC1CCCCCCCCOC(=O)CCCCCCCC1SC1CCCCCCCC (configuration not stated)
T/C (dose: 100.0 mg/kg/injection, schedule: Q01DX001 (ip), vehicle: saline with Tween-80): 95 % of control | T/C (dose: 200.0 mg/kg/injection, schedule: Q01DX001 (ip), vehicle: saline with Tween-80): 95 % of control | T/C (dose: 400.0 mg/kg/injection, schedule: Q01DX001 (ip), vehicle: saline with Tween-80): 95 % of control

CCCCCCCCCCSCC(N)C(=O)O (configuration not stated)
T/C (dose: 50.0 mg/kg/injection, schedule: Q01DX009 (ip), vehicle: other): 89 % of control | T/C (dose: 100.0 mg/kg/injection, schedule: Q01DX009 (ip), vehicle: other): 88 % of control | T/C (dose: 200.0 mg/kg/injection, schedule: Q01DX009 (ip), vehicle: other): 94 % of control | T/C (dose: 400.0 mg/kg/injection, schedule: Q01DX009 (ip), vehicle: other): 99 % of control

COc1cc(C/C(=C\c2cc(OC)c(OC)c(OC)c2)[N+](=O)[O-])ccc1OCc1ccccc1
T/C [7]: 93 % of control | T/C [8]: 94 % of control

CCCn1c(CC)nc([N+](=O)[O-])c1Sc1ncnc2nc[nH]c12
T/C [20]: 107 % of control | T/C (dose: 25.0 mg/kg/injection, schedule: Q01DX005 (ip), vehicle: Klucel (hydroxypropylcellulose) (HPC)): 123 % of control | T/C [6]: 111 % of control

Cc1cc(NCCCN(C)C)c2ccc3c(ccc4c(NCCCN(C)C)cc(C)nc43)c2n1
T/C [14]: 98 % of control | T/C [15]: 118 % of control

C=C(C)C(=O)N(C)C(C)C(=O)OC1CC(=O)N(C)c2cc(cc(OC)c2Cl)C(OC)C(C)=C/C=C/C(OC)C2(O)CC(OC(=O)N2)C(C)C2OC12C (configuration not stated)
T/C (dose: 8.0 micrograms/kg/injection, schedule: Q01DX009 (ip), vehicle: saline): 172 % of control

COc1cccc2c1NC(OC)C1CC(/C=C/C(=O)N(C)C)=CN1C2=O (configuration not stated)
T/C (dose: 320.0 micrograms/kg/injection, schedule: Q01DX005 (ip), vehicle: saline with Tween-80): 155 % of control

Cc1cc(=O)oc2nc(-c3ccccc3)[nH]c(=O)c12
T/C (dose: 60.0 mg/kg/injection, schedule: Q01DX005 (ip), vehicle: Klucel (hydroxypropylcellulose) (HPC)): 86 % of control | T/C (dose: 120.0 mg/kg/injection, schedule: Q01DX005 (ip), vehicle: Klucel (hydroxypropylcellulose) (HPC)): 100 % of control | T/C (dose: 240.0 mg/kg/injection, schedule: Q01DX005 (ip), vehicle: Klucel (hydroxypropylcellulose) (HPC)): 91 % of control

CC(C)Sc1nc(NC(=O)N(CCCl)N=O)cc(=O)[nH]1
T/C [20]: 152 % of control

N#Cc1c(-c2ccccc2)c(-c2ccccc2)n(-c2ccccc2)c1N
T/C [16]: 104 % of control | T/C [18]: 104 % of control | T/C [21]: 104 % of control

C[C@]12CCCC[C@@H]1CC[C@@H]1[C@@H]2[C@@H](O)C[C@]2(C)[C@@H](O)CC[C@@H]12
T/C [19]: 91 % of control | T/C (dose: 200.0 mg/kg/injection, schedule: Q04DX003 (ip), vehicle: saline with Tween-80): 100 % of control

C[C@]12CCC(=O)C=C1CC[C@@H]1[C@@H]2C(=O)C[C@@]2(C)[C@H]1CC[C@]2(O)C(=O)C=O
T/C [9]: 111 % of control and 123 % of control | T/C [10]: 119 % of control | T/C [11]: 111 % of control and 120 % of control | T/C [17]: 102 % of control and 113 % of control

COc1ccc(C(O)c2ncccc2C)cc1OC (configuration not stated)
T/C (dose: 12.5 mg/kg/injection, schedule: Q01DX009 (ip), vehicle: water): 102 % of control | T/C (dose: 25.0 mg/kg/injection, schedule: Q01DX009 (ip), vehicle: water): 94 % of control | T/C (dose: 50.0 mg/kg/injection, schedule: Q01DX009 (ip), vehicle: water): 99 % of control | T/C (dose: 100.0 mg/kg/injection, schedule: Q01DX009 (ip), vehicle: water): 100 % of control | T/C (dose: 200.0 mg/kg/injection, schedule: Q01DX009 (ip), vehicle: water): 101 % of control

Cc1cnc2cc(Cl)ccc2c1Cl
T/C [4]: 101 % of control | T/C [5]: 100 % of control | T/C [6]: 103 % of control

COC(c1ccc(OCc2ccccc2)cc1)C(Br)C(=O)c1ccc(Cl)cc1Cl (configuration not stated)
T/C [16]: 88 % of control | T/C [18]: 101 % of control | T/C [21]: 88 % of control

CCOC(=O)c1cc2c(ccn2OC)[nH]1
T/C [19]: 102 % of control
